These results are taken from patent US9416141B2 (University of Washington through its Center for …, priority 2012, dated 2016).

The test system of this assay is hair cells. As to the kind of experiment: Hair cell toxicity assay in zebrafish (neomycin-induced hair cell death, DASPEI staining of neuromasts). The class given is in vivo. The conditions noted are these: Danio rerio; for Emax at 2.8 µM: maximum observed @ 2.8 μM test compound; for Emax at 2.8 µM / Emax at 25 µM / Emax at 0.9 µM: 200 micromolar neomycin, read-out: Max HC Protection (HCmax, % hair cell survival); for Emax at 25 µM: maximum observed @ 25 μM test compound; for EC50: zebrafish larvae 5-7 dpf, 1 h pre-treatment, then 200 micromolar neomycin + test compound 30 min, read-out: HC50 (concentration that would produce 50% hair cell survival); for Emax at 0.9 µM: maximum observed @ 0.9 μM test compound. The gist of the method:
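Hair cell survival, as % of untreated controls, came from DASPEI scoring (0-2 each, ten neuromasts on one side) in 5-7 dpf larvae. These had 1 h compound pre-exposure (0.010-25 μM), then 200 μM neomycin with compound for 30 min. HCmax is peak protection; HC50 interpolated between flanking concentrations only when ≥50% survive.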

Structures can show the parent of a compound that is named as a salt.

`CCN1CCc2c(sc(NC(=O)Nc3ccc(Cl)cc3)c2C(=O)NCCN(C)C)C1` [Example 99, 2-[3-(4-Chlorophenyl)ureido]-N-[2-(dimethylamino)ethyl]-6-ethyl-4,5,6,7-tetrahydrothieno[2,3-c]pyridine-3-carboxamide dihydrochloride]: the Emax at 2.8 µM amounted to 18%.

Regarding `CCN1CCc2c(sc(NC(=O)Nc3ccc(Cl)cc3)c2C(=O)NCCN2CCOCC2)C1` [Example 100, 2-[3-(4-Chlorophenyl)ureido]-6-ethyl-N-(2-morpholinoethyl)-4,5,6,7-tetrahydrothieno[2,3-c]pyridine-3-carboxamide dihydrochloride], the Emax at 25 µM was determined as 59% and the EC50 fell in the range of 1000 to 10000 nM.

On to `CCN1CCc2c(sc(NC(=O)Nc3ccc(Cl)cc3)c2C(=O)NCCO)C1` [Example 101, 2-[3-(4-Chlorophenyl)ureido]-6-ethyl-N-(2-hydroxyethyl)-4,5,6,7-tetrahydrothieno[2,3-c]pyridine-3-carboxamide hydrochloride], for which the Emax at 25 µM is 74% and the EC50 is 1000 to 10000 nM.

Consider `CCN1CCc2c(sc(NC(=O)Nc3ccc(Cl)cc3)c2C(=O)NC2COC2)C1` [Example 102, 2-[3-(4-Chlorophenyl)ureido]-6-ethyl-N-(oxetan-3-yl)-4,5,6,7-tetrahydrothieno[2,3-c]pyridine-3-carboxamide], for which the Emax at 25 µM is 22%.

Take `CCN1CCc2c(sc(NC(=O)Nc3ccc(Cl)cc3)c2-c2nc(C)no2)C1` [Example 103, 1-(4-chlorophenyl)-3-[6-ethyl-3-(3-methyl-1,2,4-oxadiazol-5-yl)-4,5,6,7-tetrahydrothieno[2,3-c]pyridin-2-yl]urea hydrochloride]: the Emax at 0.9 µM was 12%.

With `CCN1CCc2c(sc(NC(=O)Nc3ccc(Cl)cc3)c2-c2nnco2)C1` [Example 104, 1-(4-chlorophenyl)-3-[6-ethyl-3-(1,3,4-oxadiazol-2-yl)-4,5,6,7-tetrahydrothieno[2,3-c]pyridin-2-yl]urea hydrochloride], the Emax at 25 µM came to 0%.

With `CCN1CCc2c(sc(NC(=O)C3(c4ccc(Cl)cc4)CC3)c2C(N)=O)C1` [Example 105, 2-[1-(4-chlorophenyl)cyclopropanecarboxamido]-6-ethyl-4,5,6,7-tetrahydrothieno[2,3-c]pyridine-3-carboxamide], the Emax at 25 µM was determined as 7%.

Take `CCN1CCc2c(sc(NC(=O)N(C)c3ccc(Cl)cc3)c2C(N)=O)C1` [Example 106, 2-[3-(4-chlorophenyl)-3-methylureido]-6-ethyl-4,5,6,7-tetrahydrothieno[2,3-c]pyridine-3-carboxamide hydrochloride]: the Emax at 25 µM was 23%.

Regarding `CCN1CCc2c(sc(NC(N)=O)c2C(N)=O)C1` [Example 107, 6-ethyl-2-ureido-4,5,6,7-tetrahydrothieno[2,3-c]pyridine-3-carboxamide hydrochloride], the Emax at 2.8 µM was 36%.

With `CCN1CCc2c(sc(NC=O)c2C(N)=O)C1` [Example 108, 6-ethyl-2-formamido-4,5,6,7-tetrahydrothieno[2,3-c]pyridine-3-carboxamide hydrochloride], the Emax at 0.9 µM is 13%.

Regarding `CCN1CCc2c(sc(Nc3c(Nc4ccc(Cl)cc4)c(=O)c3=O)c2C(N)=O)C1` [Example 109, 2-({2-[(4-chlorophenyl)amino]-3,4-dioxocyclobut-1-en-1-yl}amino)-6-ethyl-4,5,6,7-tetrahydrothieno[2,3-c]pyridine-3-carboxamide hydrochloride], the Emax at 25 µM worked out at 22%.

For `CCOC(=O)c1c(Nc2c(Nc3ccc(Cl)cc3)c(=O)c2=O)sc2c1CCN(CC)C2` [Example 110, Ethyl 2-({2-[(4-chlorophenyl)amino]-3,4-dioxocyclobut-1-en-1-yl}amino)-6-ethyl-4,5,6,7-tetrahydrothieno[2,3-c]pyridine-3-carboxylate hydrochloride], the Emax at 25 µM stood at 69% and the EC50 was > 10000 nM.

In the case of `CCN1CCc2c(ccc(NC(=O)Nc3ccc(Cl)cc3)c2C(N)=O)C1` [Example 112, 6-[3-(4-chlorophenyl)ureido]-2-ethyl-1,2,3,4-tetrahydroisoquinoline-5-carboxamide hydrochloride], the Emax at 25 µM was determined as 49%.

Regarding `CCN1CCc2c(sc(N(CC)C(=O)Nc3ccc(Cl)cc3)c2C(N)=O)C1` [Example 113, 2-[3-(4-chlorophenyl)-1-ethylureido]-6-ethyl-4,5,6,7-tetrahydrothieno[2,3-c]pyridine-3-carboxamide hydrochloride], the Emax at 2.8 µM worked out at 12%.

On to `CCN1CCCc2c(sc(NC(=O)Nc3ccc(Cl)cc3)c2C(N)=O)C1` [Example 114, 2-[3-(4-chlorophenyl)ureido)-7-ethyl-5,6,7,8-tetrahydro-4H-thieno[2,3-c]azepine-3-carboxamide hydrochloride], for which the Emax at 25 µM turned out to be 97% and the EC50 lay within 1000 to 10000 nM.

Regarding `CCN1CCc2sc(NC(=O)Nc3ccc(Cl)cc3)c(C(N)=O)c2CC1` [Example 115, 2-[3-(4-Chlorophenyl)ureido]-6-ethyl-5,6,7,8-tetrahydro-4H-thieno[2,3-d]azepine-3-carboxamide hydrochloride], the Emax at 25 µM was 99% and the EC50 lay within 1000 to 10000 nM.

With `CCN1CCc2sc(NC(=O)Nc3ccc(Cl)cc3)c(C(N)=O)c2C1` [Example 116, 2-[3-(4-Chlorophenyl)ureido]-5-ethyl-4,5,6,7-tetrahydrothieno[3,2-c]pyridine-3-carboxamide hydrochloride], the Emax at 25 µM was 82% and the EC50 lay in the range of 1000 to 10000 nM.

As to `CC(C)(O)CN1CCc2c(sc(NC(=O)Nc3ccc(Cl)cc3)c2C(N)=O)C1` [Example 119, 2-[3-(4-chlorophenyl)ureido]-6-(2-hydroxy-2-methylpropyl)-4,5,6,7-tetrahydrothieno[2,3-c]pyridine-3-carboxamide], the Emax at 25 µM was found to be 65% and the EC50 was in the range of 1000 to 10000 nM.

In the case of `CN1C(C)(C)Cc2c(sc(NC(=O)Nc3ccc(Cl)cc3)c2C(N)=O)C1(C)C` [Example 120, 2-[3-(4-chlorophenyl)ureido]-5,5,6,7,7-pentamethyl-4,5,6,7-tetrahydrothieno[2,3-c]pyridine-3-carboxamide hydrochloride], the Emax at 2.8 µM was 81% and the EC50 fell in the range of 1000 to 10000 nM.

With `CC(C)C[N+]1(C)CCc2c(sc(NC(=O)Nc3ccc(Cl)cc3)c2C(N)=O)C1` (stereo not drawn) [Example 135, 3-carbamoyl-2-[3-(4-chlorophenyl)ureido]-6-isobutyl-6-methyl-4,5,6,7-tetrahydrothieno[2,3-c]pyridin-6-ium iodide], the Emax at 25 µM stood at 107% and the EC50 was < 1000 nM.

Take `CC[N+]1(C)CCc2c(sc(NC(=O)Nc3ccc(Cl)cc3)c2C(N)=O)C1` (stereo not drawn) [Example 136, 3-Carbamoyl-2-[3-(4-chlorophenyl)ureido]-6-ethyl-6-methyl-4,5,6,7-tetrahydrothieno[2,3-c]pyridin-6-ium iodide]: the Emax at 25 µM is 76% and the EC50 was in the range of 1000 to 10000 nM.

On to `NC(=O)c1c(NC(=O)Nc2ccc(Cl)cc2)sc2c1CC[N+]1(CCCC1)C2` [Example 138, 3′-Carbamoyl-2′-[3-(4-chlorophenyl)ureido]-5′,7′-dihydro-4′H-spiro[pyrrolidine-1,6′-thieno[2,3-c]pyridin]-1-ium bromide], for which the Emax at 25 µM was determined as 94% and the EC50 is < 1000 nM.

In the case of `CC[N+]1(CC)CCc2c(sc(NC(=O)Nc3ccc(Cl)cc3)c2C(N)=O)C1` [Example 139, 3-Carbamoyl-2-[3-(4-chlorophenyl)ureido]-6,6-diethyl-4,5,6,7-tetrahydrothieno[2,3-c]pyridin-6-ium iodide], the Emax at 25 µM was 99% and the EC50 is < 1000 nM.

Turning to `C[N+]1(CC2CC2)CCc2c(sc(NC(=O)Nc3ccc(Cl)cc3)c2C(N)=O)C1` (stereo not drawn) [Example 140, 3-Carbamoyl-2-[3-(4-chlorophenyl)ureido]-6-(cyclopropylmethyl)-6-methyl-4,5,6,7-tetrahydrothieno[2,3-c]pyridin-6-ium iodide], the Emax at 25 µM came to 92% and the EC50 was < 1000 nM.

For `COCCC[N+]1(C)CCc2c(sc(NC(=O)Nc3ccc(Cl)cc3)c2C(N)=O)C1` (stereo not drawn) [Example 141, 3-Carbamoyl-2-[3-(4-chlorophenyl)ureido]-6-(3-methoxypropyl)-6-methyl-4,5,6,7-tetrahydrothieno[2,3-c]pyridin-6-ium iodide], the Emax at 2.8 µM came to 77% and the EC50 was < 1000 nM.

Regarding `C[N+]1(C2COC2)CCc2c(sc(NC(=O)Nc3ccc(Cl)cc3)c2C(N)=O)C1` (stereo not drawn) [Example 142, 3-Carbamoyl-2-[3-(4-chlorophenyl)ureido]-6-methyl-6-(oxetan-3-yl)-4,5,6,7-tetrahydrothieno[2,3-c]pyridin-6-ium iodide], the Emax at 25 µM was 82% and the EC50 was in the range of 1000 to 10000 nM.

Regarding `C[N+]1(C2CCOCC2)CCc2c(sc(NC(=O)Nc3ccc(Cl)cc3)c2C(N)=O)C1` (stereo not drawn) [Example 143, 3-Carbamoyl-2-[3-(4-chlorophenyl)ureido]-6-methyl-6-(tetrahydro-2H-pyran-4-yl)-4,5,6,7-tetrahydrothieno[2,3-c]pyridin-6-ium iodide], the Emax at 25 µM came to 96% and the EC50 was 1000 to 10000 nM.

For the compound `C[N+]1(CCO)CCc2c(sc(NC(=O)Nc3ccc(Cl)cc3)c2C(N)=O)C1` (stereo not drawn) [Example 144, 3-Carbamoyl-2-[3-(4-chlorophenyl)ureido]-6-(2-hydroxyethyl)-6-methyl-4,5,6,7-tetrahydrothieno[2,3-c]pyridin-6-ium iodide], the Emax at 25 µM is 78% and the EC50 lay within 1000 to 10000 nM.
